ChEMBL document CHEMBL1128933, “Structural comparison of alkylpolyamine analogues with potent in vitro antitumor or antiparasitic activity” (Bioorg Med Chem Lett, 1996)

Experiments:
Trypanosoma brucei [1] = assay: Compound was evaluated for growth brucei LAB 110 strain.; assay type: functional, organism-based
Trypanosoma brucei [2] = assay: Compound was evaluated for growth brucei K269 strain.; assay type: functional, organism-based
Trypanosoma brucei [3] = assay: Compound was evaluated for growth brucei K243 As-10-3 strain.; assay type: functional, organism-based
NCI-H157 = assay: Compound was evaluated for inhibitory activity against H157 non-small cell lung carcinoma.; assay type: functional, cell-based; details: Homo sapiens
NCH82 = assay: Compound was evaluated for inhibitory activity against H82 small cell lung carcinoma.; assay type: functional, cell-based; details: Homo sapiens
Trypanosoma brucei [4] = assay: Compound was evaluated for growth brucei K243 strain.; assay type: functional, organism-based

SMILES	IC50 (Trypanosoma brucei [1])	IC50 (Trypanosoma brucei [2])	IC50 (Trypanosoma brucei [3])	IC50 (NCI-H157)	IC50 (NCH82)	IC50 (Trypanosoma brucei [4])
C#CCNCCCNCCCNCCCNCC	> 100 µM	> 100 µM	> 100 µM	700 nM	5200 nM	> 100 µM
CCNCCCNCCCCCCCNCCCNCC1CCCCCC1	18 µM	21 µM	26.2 µM	> 10000 nM	9000 nM	18.4 µM
CCNCCCNCCCNCCCNCC1CC1	> 100 µM	> 100 µM	> 100 µM	400 nM	700 nM	> 100 µM
C(CCCNCCCNCC1CCCCCC1)CCCNCCCNCC1CCCCCC1	0.125 µM	0.69 µM	0.78 µM	2100 nM	1500 nM	0.98 µM
c1ccc(CNCCCNCCCCCCCNCCCNCc2ccccc2)cc1	14.5 µM	12.3 µM	13 µM	–	–	15.1 µM
CCNCCCNCCCNCCCNCC1CCCCCC1	> 100 µM	> 100 µM	> 100 µM	500 nM	1700 nM	> 100 µM
CCNCCCNCCCCNCCCNCC [BIS(ETHYL)SPERMINE]	–	–	–	2900 nM	–	–
